Data set [1] deals with esterase from swine liver [EC3.1.1.1]. Briefly: In vitro evaluation of esterase activity on Gd-1 particles (turbidity, water proton relaxation rate R1). Format: biochemical. As to the method: (§1) The activity of two different enzymes (esterase from swine liver [EC3.1.1.1] and lipase from Chromobacterium viscosum [EC 3.1.1.34]) was evaluated on Gd-1 particles.
(§2) This behaviour was confirmed by measurements of the water protons relaxation rate (R1) on a NMR spectrometer (Stelar Spinmaster) operating at 0.5T and 298K.
(§3) In the presence of the esterase (2 mg) R1 rapidly rises and after 2-3 hours reaches the value expected for a soluble Gd(III) complex resulting from the hydrolysis of the ester bonds of the Gd-1 complex. The differences in the two observed curves, and therefore the different reaction kinetics, can be ascribed to the different amounts of active units per mg of the two enzymes added to the Gd complex suspension.

The target in data set [2] is lipase from Chromobacterium viscosum [EC 3.1.1.34] (Pseudarthrobacter phenanthrenivorans, UniProt P0DUB9). Put plainly: In vitro evaluation of lipase activity on Gd-1 particles (turbidity, R1). In kind it is biochemical. The following applies: HEPES buffer 50 mM, pH=8, 310K. On the procedure:
as §1, §2, §3

The subject of another data set is macrophages esterase. Put plainly: Macrophage lysate esterase on Gd-1 (R1 increase). Format: biochemical. Particulars: about 4×10^6 macrophages lysed by sonication, about 1 mg Gd-1. On the procedure: Afterwards, the macrophages esterase was tested. For this purpose, about 4×10^6 macrophages were subjected to lysis by sonication and about 1 mg Gd-1 was added to the lysate. The enzyme present in the cellular lysate rapidly cleaves the hydrophobic ester groups, thus releasing the soluble Gd complex. The formation of soluble Gd complex is well followed by the increase of water proton relaxation rate (FIG. 2). After about two hours the enzymatic reaction reaches the steady state.

For the next data set, the system named is U937 monocytes. Put plainly: Phagocytic uptake of Gd-1 particles on U937 monocytes differentiated with TPA. In kind it is cell-based. As to the method: The phagocytic uptake of the Gd-1 particles was carried out on U937 monocytes previously treated for three days with TPA to induce cell differentiation. The size of the Gd-1 particles was determined by electron microscope observation and the measured diameter ranged from 0.5 to 10 μm. Most particles had diameter <10 μm, which is sufficiently small to allow the phagocytic process. The uptake was carried out at 37° C. and the cells were incubated with two different amounts of Gd-1 at subsequent times (1 to 12 hours). After incubation at 37° C. for several hours, the medium was removed and the cells were washed three times with 5 mL PBS. In these conditions, Gd-1 particles suspended in the medium are not solubilised; in fact, the relaxivity of the medium remains very close to that of pure water (0.45 s^−1). The amount of Gd(III) detected in the cells is directly proportional to incubation time and in 12 hours the saturation of the kinetic curve is not reached (FIG. 3). As expected, the amount of phagocyted Gd(III) is proportional to the amount of complex added to the culture medium at time zero. It is interesting to compare this behaviour with the water proton relaxation rate in the cytosolic extract. This was obtained by freezing three times the cells at −80° C. after completion of phagocytosis. […]

Data set [3] concerns U937 monocytes differentiated to macrophages. Put plainly: Intracellular esterase activity on Gd-1 in intact cells. In kind it is cell-based. On the procedure:
An experiment for evaluating the enzymatic activity inside intact cells was set up, using Gd-1 particles as probes. For this purpose, different capsules containing about 2×10^6 cells (U937 monocytes differentiated to macrophages as described above) were incubated with ca. 5 mg of Gd-1 particles suspended in 5 mL medium (RPMI) for four hours at 37° C. After this period the cells were washed three times with PBS, covered with further 5 ml RPMI and re-incubated for different times at 37° C. In this way it was possible to isolate the contribution deriving from the esterase-catalysed hydrolysis of Gd-1 particles for the time interval that […] the internalisation step. The proton relaxation rate was measured at successive time intervals (0.5, 1, 2 hours). After 4 hours incubation in the presence of Gd-1 particles the cells internalise about 60 nmol complex, but only 50% of the internalised particles is hydrolysed in this time and contributes to the total relaxivity. In fact, the relaxivity of the cytosolic extract is 2.5 when the cells are resuspended in a medium devoid of Gd-1 and raises to 3.7 in the following two hours of enzymatic hydrolysis. It can be therefore assumed that 80% of Gd-1 internalised particles have been solubilised by cellular esterases (FIG. 5).

The test system of a further data set is neutrophiles. Briefly: Labelling of neutrophiles with sonicated Gd-1 particles. In kind it is cell-based. Particulars: ca. […]10^6 neutrophiles, 0.4 mg particles, 37° C. On the procedure: One of the applications for labelled cells deals with the identification of infection loci in patients affected by fever of unknown origin. This imply the labelling of Neutrophiles obtained from the standard procedures from a specimen of blood drawn from the patient. After labelling the neutrophiles have to be re-injected in the patient who is subjected to MRI examination.
The labelling of neutrophiles (ca. 2.5×10^6) has been carried out by incubating them (5 ml) in a medium containing 0.4 mg of particles of Gd-1 prepared according to example 5.
After 2.5 h of incubation at 37° C., the cells were harvested, whashed several times with PBS, then analyzed. The content of Gd per mg protein is 8.8×10^−8 moles, i.e. an amount that after the intracellular degradation of the particle, is well sufficient to allow the visualization of the labelled cells by MRI techniques.

A further data set relates to U937 cells. Briefly: Internalization assay of sonicated Gd-1 particles with U937 cells endowed with macrophagic activity. In kind it is cell-based. The following applies: 0.2 mg Gd-1 in medium, ca. 4 hours incubation. As to the method: The particles obtained by the sonication procedure described in example 5 has been tested in an internalization assay with the U937 cells endowed with macrophagic activity. The incubation medium contains 0.2 mg of Gd-1 (total). After ca. 4 hours of incubation the amount of Gd internalized reached a maximum value of 2×10^−8 moles/mg of protein. This means that ca 10% is taken up by the cells. Such amount is well sufficient to allow the visualisation of these cells. Once the enzymatic degradation process proceeds the signal intensity progressively increases to reach a steady state which lasts for a time long enough for the type of applications of this protocol.

Here are results for two compounds from US20060115431A1, “Procedures of cellular labelling with paramagnetic complexes for mri applications” (Bracco Imaging S.p.A., priority 2002, published 2006).

Sequence of lipase from Chromobacterium viscosum [EC 3.1.1.34] (P0DUB9 whole entry): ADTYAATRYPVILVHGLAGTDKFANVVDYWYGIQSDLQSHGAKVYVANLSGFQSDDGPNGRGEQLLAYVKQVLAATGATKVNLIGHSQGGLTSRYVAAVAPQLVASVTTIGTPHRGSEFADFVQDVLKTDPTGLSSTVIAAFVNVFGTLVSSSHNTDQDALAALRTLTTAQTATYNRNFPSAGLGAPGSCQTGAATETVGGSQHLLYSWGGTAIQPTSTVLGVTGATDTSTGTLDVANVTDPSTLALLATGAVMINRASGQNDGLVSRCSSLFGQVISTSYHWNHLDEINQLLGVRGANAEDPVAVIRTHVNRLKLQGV

In the case of `CCCCCCCCCCCCCCCCCC(=O)OCCOCCNC(=O)CN(CCN(CCN(CC(=O)O)CC(=O)NCCOCCOC(=O)CCCCCCCCCCCCCCCCC)CC(=O)O)CC(=O)O` [Gd-1], the “turbidity of the suspension in the presence of the enzyme” value in data set [1] (HEPES buffer 50 mM, pH=8, 310K) was “progressive decrease in turbidity”; in data set [2] it was “progressive decrease in turbidity”. Besides, the “time for R1 to reach the value expected for a soluble Gd(III) complex” value in data set [1] (esterase 2 mg) fell in the range of 2 to 3 h. Further, the “water protons relaxation rate (R1) in the absence of enzyme” value in data set [1] (no enzyme, 0.5T, 298K, not different from pure water) stood at 0.38 s⁻¹. For the same compound, the “time for the enzymatic reaction to reach the steady state” value in the data set with macrophages esterase is “about two”. In the data set with U937 monocytes (culture medium, 37° C., particles not solubilised), the “relaxivity of the medium with suspended particles” value is roughly 0.45 s⁻¹. In addition, the “amount of complex internalised by the cells” value in data set [3] (about 2×10^6 cells, ca. 5 mg particles in 5 mL RPMI, 4 hours, 37° C.) is on record as “about 60 nmol”. Also, the “fraction of the internalised particles hydrolysed” value in data set [3] (after 4 hours incubation with particles) amounted to 50%. In addition, the “relaxivity of the cytosolic extract” value is 3.7 in data set [3] (after the following two hours of enzymatic hydrolysis) and 2.5 in data set [3] (when cells are resuspended in a medium devoid of Gd-1). For the same compound, the “fraction of internalised particles solubilised by cellular esterases” value in data set [3] (after two further hours of hydrolysis) turned out to be 80%. Also, the “content of Gd per mg protein” value in the data set on neutrophiles worked out at 8.8e-08 mol. In addition, in the data set on U937 cells, the “amount of Gd internalized (maximum value)” value is recorded as 2×10^−8 moles/mg of protein. In addition, the “fraction taken up by the cells” value in the data set on U937 cells is roughly 10%.
As to `CC(O)CN1CCN(CC(=O)[O-])CCN(CC(=O)[O-])CCN(CC(=O)[O-])CC1.[Gd+3]` (stereo not drawn) [Gd-HPDO3A, reference compound], the “presence of the complex in the cells (relaxation rate of water protons in the cytosolic extract)” value with U937 monocytes (soluble complex incubated in the same conditions as Gd-1 particles) is “complete absence”.
